Laboratory results as given in ChEMBL document CHEMBL6153109, “Switching Roles─Exploring Concentration-Dependent Agonistic versus Antagonistic Behavior of Integrin Ligands” (J Med Chem, 2025).
Each block holds one molecule with its values, some of them ahead of it. Activity calls are given as the source filed them. The calls are words filed in the database; no cut-off is given here.

Key:
[1] = Drug uptake in human HN cells overexpressing integrin alphaVbeta6 at 1 uM measured within 3 mins by Hoechst 33342 staining based fluorescence analysis; format: ADME, cell-based; conditions: 0.05 h
[2] = Drug uptake in human HN cells overexpressing integrin alphaVbeta6 at 1 uM measured at 60 to 300 mins by Hoechst 33342 staining based fluorescence analysis; format: ADME, cell-based; conditions: time 60-300 min
[3] = Drug uptake in human OV-MZ-6 cells overexpressing integrin […] at 1 uM measured after 300 mins by Hoechst 33342 staining based fluorescence analysis; format: ADME, cell-based; conditions: ov-mz-6, 5 h
[4] = target: T1, Integrin alpha-5/beta-1 (Homo sapiens, UniProt P05556+P08648); experiment: Agonist activity at integrin alpha5beta1 in human OV-MZ-6 cells assessed as increase in p-FAK expression at 1 nM measured after 60 mins by Western blot analysis; format: cell-based
[5] = target: T2, Integrin alpha-V/beta-3 (Homo sapiens, UniProt P05106+P06756); experiment: Agonist activity at integrin alphaVbeta3 in human M21 cells assessed as fold increase in FAK expression at 1 uM incubated for 24 hrs by Western blot analysis; format: cell-based; conditions: filed as agonist
[6] = system: M21; experiment: Inhibition of cell adhesion in human M21 cells expressing integrin alphaVbeta3 at 1 nM measured after 48 hrs by microscopic imaging analysis; format: functional, cell-based
[7] = system: M21; experiment: Inhibition of cell migration in human M21 cells expressing integrin alphaVbeta3 assessed as cell coverage at 1 uM measured within 72 hrs by wound scratch assay (reference value: 95 %); format: functional; design: scale not given: the % may be the effect or the level left
[8] = target: T2, Integrin alpha-V/beta-3; experiment: Agonist activity at integrin alphaVbeta3 in human M21 cells assessed as increase in FAK expression at 1 nM incubated for 5 to 60 mins by Western blot analysis; format: cell-based; conditions: filed as agonist, time 5-60 min
[9] = target: T2, Integrin alpha-V/beta-3; experiment: Agonist activity at integrin alphaVbeta3 in human M21 cells assessed as increase in p-FAK expression at 1 to 1000 nM incubated for 5 to 60 mins by Western blot analysis; format: cell-based; conditions: dose 1-1000 nM, time 5-60 min
[10] = target: T2, Integrin alpha-V/beta-3; experiment: Agonist activity at integrin alphaVbeta3 in human M21 cells assessed as increase in p-FAK expression at 1 uM incubated for 24 hrs by Western blot analysis; format: cell-based
[11] = system: M21; experiment: Inhibition of cell adhesion in human M21 cells expressing integrin alphaVbeta3 at 1 uM measured after 48 hrs by microscopic imaging analysis; format: functional, cell-based
[12] = system: OV-MZ-6; experiment: Inhibition of cell migration in human OV-MZ-6 cells expressing integrin alpha5beta1 assessed as delay in wound gap closure at 1 to 1000 nM measured after 72 hrs by wound scratch assay; format: functional, cell-based; conditions: dose 1-1000 nM
[13] = target: T2, Integrin alpha-V/beta-3; experiment: Agonist activity at integrin alphaVbeta3 in human M21 cells assessed as increase in FAK expression at 1 uM incubated for 5 to 60 mins by Western blot analysis; format: cell-based; conditions: time 5-60 min
[14] = target: T1, Integrin alpha-5/beta-1; experiment: Agonist activity at integrin alpha5beta1 in human OV-MZ-6 cells assessed as fold increase in p-ERK1/2 expression at 1 uM incubated for 24 hrs by Western blot analysis; format: cell-based; conditions: filed as agonist
[15] = target: T1, Integrin alpha-5/beta-1; experiment: Agonist activity at integrin alpha5beta1 in human OV-MZ-6 cells assessed as fold increase in FAK expression at 1 uM incubated for 24 hrs by Western blot analysis (reference value: 1); format: cell-based; conditions: filed as agonist
[16] = target: T1, Integrin alpha-5/beta-1; experiment: Agonist activity at integrin alpha5beta1 in human OV-MZ-6 cells assessed as increase in FAK expression at 1 nM incubated for 5 to 60 mins by Western blot analysis; format: cell-based; conditions: filed as agonist, time 5-60 min
[17] = target: T1, Integrin alpha-5/beta-1; experiment: Agonist activity at integrin alpha5beta1 in human OV-MZ-6 cells assessed as fold increase in p-FAK expression at 1 nM incubated for 5 mins by Western blot analysis (reference value: 1); format: cell-based; conditions: filed as agonist
[18] = system: M21; experiment: Inhibition of cell migration in human M21 cells expressing integrin alphaVbeta3 assessed as delay in wound gap closure at 1 nM measured after 9 to 72 hrs by wound scratch assay; format: functional, cell-based; conditions: time 9-72 hrs
[19] = target: T2, Integrin alpha-V/beta-3; experiment: Competitive binding affinity to human Integrin alphaVbeta3 incubated for 1 hrs in presence of vitronectin by ELISA based spectrophotometric analysis; format: protein-complex assay
[20] = target: Integrin alpha-V/beta-6 (Homo sapiens, UniProt P06756+P18564); experiment: Competitive binding affinity to human Integrin alphaVbeta6 incubated for 1 hrs in presence of […] of TGF-beta1 by ELISA based spectrophotometric analysis; format: protein-complex assay
[21] = target: T1, Integrin alpha-5/beta-1; experiment: Competitive binding affinity to human Integrin alpha5beta1 incubated for 1 hrs in presence of fibronectin by ELISA based spectrophotometric analysis; format: protein-complex assay
[22] = Drug localization in cell membrane of human M21 cells overexpressing integrin alphaVbeta3 at 1 uM measured at 30 mins by CellMask green staining based fluorescence analysis; format: ADME, cell membranes; conditions: m21, 0.5 h
[23] = Drug uptake in human M21 cells overexpressing integrin alphaVbeta3 at 1 uM measured at 60 to 300 mins by Hoechst 33342 staining based fluorescence analysis; format: ADME, cell-based; conditions: m21, 1 µM, time 60-300 min
[24] = Drug localization in cell membrane of human M21 cells overexpressing integrin alphaVbeta3 at 1 uM measured within 3 mins by CellMask green staining based fluorescence analysis; format: ADME, cell membranes; conditions: m21, 0.05 h

Structure (SMILES): CC(C)C[C@@H]1NC(=O)[C@H](CC(=O)O)NC(=O)CNC(=O)[C@H](CCCNC(=N)N)NC(=O)[C@H](Cc2ccccc2)NC(=O)[C@H](CCCCNC(=O)CCCCCNC(=O)CCCCC[N+]2=C(/C=C/C=C/C=C3/N(C)c4ccc5ccccc5c4C3(C)C)C(C)(C)c3c2ccc2ccccc32)N(C)C(=O)[C@H]2CCCN2C(=O)[C@H](Cc2ccccc2)NC(=O)[C@H](C)NC1=O
Drug uptake [1]: Active | Drug uptake [2]: Active | Drug uptake [3]: Not_active

Activity [4]: inactive | fold change (FC) [5]: 2 | Activity [8]: Active | Activity [9]: inactive | Activity [10]: inactive | Activity [13]: inactive | fold change (FC) [14]: 2.4 | fold change (FC) [15]: 1.7 | Activity [16]: Active; Slight Increase Observed | fold change (FC) [17]: 2
Structure (SMILES): C#CCCC(=O)NCCCOc1ccc(C(=O)N[C@H](CC(=O)O)Cc2ccc(OCCCNc3cc(OC)ccn3)cc2)cc1
inhibition [6]: inactive | Activity [7]: 80% | inhibition [11]: Active | inhibition [12]: Active | inhibition [18]: inactive

Structure (SMILES): CC(C)C[C@H](NC(=O)[C@H](CO)NC(=O)[C@H](CC(=O)O)NC(=O)[C@H](CC(C)C)NC(=O)[C@H](CC(=O)O)NC(=O)[C@@H](NC(=O)[C@@H](N)CCCNC(=N)N)[C@@H](C)O)C(=O)N[C@@H](CCCNC(=N)N)C(=O)N[C@H](C(=O)O)[C@@H](C)O
IC50 [19]: > 1 µM | IC50 [20]: 0.0295 µM | IC50 [21]: > 1 µM

Drug uptake [22]: Active | Drug uptake [23]: Active | Drug uptake [3]: Active | Drug uptake [24]: Active
Structure (SMILES): COc1ccnc(NCCCOc2ccc(C[C@@H](CC(=O)O)NC(=O)c3ccc(OCCCNC(=O)CCCCCNC(=O)CCCCC[N+]4=C(/C=C/C=C/C=C5/N(C)c6ccc7ccccc7c6C5(C)C)C(C)(C)c5c4ccc4ccccc54)cc3)cc2)c1
